The values that follow come from patent US7019132B2, “Porphyrin derivatives” (Kostarworld Co., Ltd., priority 2003, dated 2006).

For data set [1], the system named is EMT6 cells.
The test system of data set [2] is mouse EMT6 cell line.
Description: (§2) Breast cancer cell line (EMT6; 1×10^6 cells/mouse) was cultured in culture medium (DMEM+10% FBS+100 units of Penicillin+100 μg streptomycin), treated with 0.25% Trypsin-EDTA to collect the cells and the number of cells was counted using by Trypan blue staining reagent.
(§3) Each 3 ml of cells was added to 35 mm of culture dish in the concentration of 2×10^5 cells/ml and incubated in 5% CO2 incubator for 24 hrs in order that the cells be arranged to be made a mono-layer.
(§4) Photosensitizing substance was added thereto and irradiation was subjected thereon at the strength of 1.2 J using by halogen lamp. The culture dishes were transferred to incubators and incubated.
(§5) The cell cytotoxicity caused by PDT was analyzed by MTT assay and the morphology of cells was observed by microscopy.
(§6) Conventional photosensitizer, i.e., photogem®, was used as a comparative control group and several factors such as the concentration of test samples, the irradiation strength of light and the absorption time of samples etc were modified in the present experiment.
For data set [3] the following is noted: λexcitation 508 nm, toluene, air-saturated, 21° C.
Description: The transforming activity of the target compounds into singlet oxygen state was measured by following methods.
The experimental assay was performed under air-saturated condition (99.999% ultra-purified gas) using toluene (Merck Co. HPLC grade) as a solvent, in the oxygen concentration in the solution of 2.1×10^−3 M at 21° C.
A short description of data set [4]: Acute toxicity test on ICR mice. In kind it is in vivo. Particulars: i.p. 20, 10 and 1 mg/kg, observed 24 hrs. How it is done: (§1) The acute toxicity tests on ICR mice (mean body weight 25±5 g) and Sprague-Dawley rats (235±10 g) were performed using the compounds 1 and 10. Each group consisting of 3 mice or rats was administrated intraperitoneally with 20 mg/kg, 10 mg/kg and 1 mg/kg of test compounds or solvents (0.2 ml, i.p.), respectively and observed for 24 hrs.

For data set [5], the system named is mouse EMT6 cell line. In words: Cell cytotoxicity caused by PDT on EMT6 cell line, MTT assay. In general terms: Formazan colour is commonly taken as a measure of viable cells.
Description: as §2, §3, §4, §5, §6
For another data set, the system named is EMT6 cell. In words: MMP (mitochondrial membrane potential), JC-1 dye staining, FACS analysis. In kind it is cell-based, mouse. Particulars: after PDT, JC-1 staining. From the text:
FIG. 8 depicts the diagram determining MMP (mitochondrial membrane potential) within EMT6 cell after the treatment of PDT and JC-1 dye staining by FACS analysis.
A general note: A flow cytometer gives signals particle by particle.

Data set [6] is described as follows: Acute toxicity test on Sprague-Dawley rats. In kind it is in vivo. To be noted: i.p. 20, 10 and 1 mg/kg, observed 24 hrs. The method, then: as §1
The test system of another data set is EMT6 tumor. Briefly: In vivo PDT assay, EMT6 breast cancer transplanted to BALB/c mouse. The method, then: DH-1-180-3 as a test sample of the present invention and photofrin (photogem®) as a control group were used in test.
The tumor size of each mice was determined using by caliper at the interval of 2 or 3 days and the survival ratio of the mice according to tumor was also determined.

The test system of data set [7] is EMT6 cells. Briefly: Annexin V/PI staining for cell apoptosis. In kind it is cell-based, mouse. To be noted: PDT treatment group 0.2 μg/hr; above 90% of cells survived in control. From the text: FIG. 4 presents the staining result with Annexin V/PI staining to study the action mechanism of cell apoptosis.

As to “methyl pheophorbide α triethylene glycol ester [DH-1-180-3]”, in the data set with EMT6 cells [1], the “concentration showing the strongest cell cytotoxicity” value is recorded as “at least 0.4 μg” and the “duration time showing the strongest cell cytotoxicity” value is given as “at least 60 minutes”. Moreover, in the data set on mouse EMT6 cell line [2], the “cell cytotoxicity without light” value is “do not show cell cytotoxicty” and the “intensity of irradiating light for strongest cytotoxicity / optimum” value was determined as 1.2 J. Besides, the “transformed photon yield (singlet oxygen state)” value in data set [3] is listed as 0.60 (5%). Also, in [4], the acute toxicity findings entry is “no treatment-related effects on mortality, clinical signs, body weight changes and gross findings”. In addition, the optimum absorption time with mouse EMT6 cell line [5] (0.4 μg/ml, 1.2 J) was determined as 1 h. In the data set on mouse EMT6 cell line [5] (EMT6, MTT assay, with light irradiation), this substance registered an LD100 of 0.4 µg. For the same substance, in the data set with mouse EMT6 cell line [5] (absorption 1 hour, 1.2 J, analysis at 24 hrs), the “optimum concentration of photosensitizer used in PDT” value is 0.4 µg/mL. The “MMP (mitochondrial membrane potential)” value with EMT6 cell is “remarkably decreased”. For the same substance, the acute toxicity findings result in data set [6] is “no treatment-related effects on mortality, clinical signs, body weight changes and gross findings”. For the same substance, the “growing ratio of tumor” value in the data set on EMT6 tumor (0.4 and 0.8 mg/kg/mouse, light 1.2 J 3 h later, vs control and photofrin (2 mg/kg/mouse)) is reported as “remarkably decreased”. The survival ratio entry with EMT6 tumor (PDT treatment group vs control group) is “extended”. Besides, in the data set on EMT6 cells [7], the dead cells was in the range of 50 to 60%.
